{"source": "ChEMBL document CHEMBL1201862", "about": "“PubChem BioAssay data set” (2004)", "key": {"[1]": {"biological_target": "Cyclin-dependent kinase 1 (Homo sapiens, UniProt P06493)", "sequence (P06493 whole entry)": "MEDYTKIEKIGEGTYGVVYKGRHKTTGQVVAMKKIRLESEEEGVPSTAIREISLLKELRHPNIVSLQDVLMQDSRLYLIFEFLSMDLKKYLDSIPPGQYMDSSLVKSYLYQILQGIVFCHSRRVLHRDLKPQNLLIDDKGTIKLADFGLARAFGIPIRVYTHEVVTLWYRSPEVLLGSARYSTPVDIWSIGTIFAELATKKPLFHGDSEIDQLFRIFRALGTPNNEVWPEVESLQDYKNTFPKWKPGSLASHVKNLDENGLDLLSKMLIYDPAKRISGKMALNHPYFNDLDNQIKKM", "assay_type": "functional"}, "[2]": {"biological_target": "Serine/threonine-protein kinase Chk2 (Homo sapiens, UniProt O96017)", "sequence (O96017 whole entry)": "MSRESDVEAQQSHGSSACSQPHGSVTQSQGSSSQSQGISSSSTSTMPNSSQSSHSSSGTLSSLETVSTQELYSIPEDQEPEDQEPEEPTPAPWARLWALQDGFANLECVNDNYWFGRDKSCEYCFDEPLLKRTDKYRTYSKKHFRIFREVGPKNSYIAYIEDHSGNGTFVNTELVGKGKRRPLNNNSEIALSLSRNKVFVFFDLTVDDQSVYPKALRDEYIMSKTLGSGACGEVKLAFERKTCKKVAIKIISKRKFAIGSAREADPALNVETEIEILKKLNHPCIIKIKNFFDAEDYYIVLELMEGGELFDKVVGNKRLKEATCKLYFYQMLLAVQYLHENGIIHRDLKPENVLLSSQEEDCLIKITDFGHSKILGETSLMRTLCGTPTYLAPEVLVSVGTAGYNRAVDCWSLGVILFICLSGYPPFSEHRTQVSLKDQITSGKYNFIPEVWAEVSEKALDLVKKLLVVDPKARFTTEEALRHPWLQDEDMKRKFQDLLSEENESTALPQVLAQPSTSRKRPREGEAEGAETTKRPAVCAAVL", "assay_type": "functional"}, "[3]": {"biological_target": "MAP/microtubule affinity-regulating kinase 3 (Homo sapiens, UniProt P27448)", "sequence (P27448 whole entry)": "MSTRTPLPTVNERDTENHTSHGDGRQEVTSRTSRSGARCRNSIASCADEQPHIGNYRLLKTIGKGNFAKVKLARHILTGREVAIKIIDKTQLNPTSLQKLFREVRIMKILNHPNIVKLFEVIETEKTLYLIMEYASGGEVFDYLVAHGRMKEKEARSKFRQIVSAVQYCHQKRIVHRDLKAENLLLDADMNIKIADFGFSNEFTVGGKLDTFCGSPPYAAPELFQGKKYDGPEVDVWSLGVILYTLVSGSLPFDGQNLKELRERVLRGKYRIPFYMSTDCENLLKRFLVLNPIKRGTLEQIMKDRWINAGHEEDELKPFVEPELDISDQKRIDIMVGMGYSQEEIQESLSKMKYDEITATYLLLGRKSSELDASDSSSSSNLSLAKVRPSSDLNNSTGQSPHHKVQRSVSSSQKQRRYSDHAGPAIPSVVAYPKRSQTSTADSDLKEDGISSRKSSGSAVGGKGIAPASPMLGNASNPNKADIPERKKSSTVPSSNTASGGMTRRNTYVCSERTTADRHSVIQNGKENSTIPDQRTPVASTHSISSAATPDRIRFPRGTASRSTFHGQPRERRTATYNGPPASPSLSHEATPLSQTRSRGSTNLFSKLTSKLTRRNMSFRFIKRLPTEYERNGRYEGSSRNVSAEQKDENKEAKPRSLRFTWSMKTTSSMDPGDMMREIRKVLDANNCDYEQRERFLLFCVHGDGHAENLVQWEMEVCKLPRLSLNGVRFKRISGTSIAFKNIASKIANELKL", "assay_type": "functional"}, "[4]": {"biological_target": "Aurora kinase A (Homo sapiens, UniProt O14965)", "sequence (O14965 whole entry)": "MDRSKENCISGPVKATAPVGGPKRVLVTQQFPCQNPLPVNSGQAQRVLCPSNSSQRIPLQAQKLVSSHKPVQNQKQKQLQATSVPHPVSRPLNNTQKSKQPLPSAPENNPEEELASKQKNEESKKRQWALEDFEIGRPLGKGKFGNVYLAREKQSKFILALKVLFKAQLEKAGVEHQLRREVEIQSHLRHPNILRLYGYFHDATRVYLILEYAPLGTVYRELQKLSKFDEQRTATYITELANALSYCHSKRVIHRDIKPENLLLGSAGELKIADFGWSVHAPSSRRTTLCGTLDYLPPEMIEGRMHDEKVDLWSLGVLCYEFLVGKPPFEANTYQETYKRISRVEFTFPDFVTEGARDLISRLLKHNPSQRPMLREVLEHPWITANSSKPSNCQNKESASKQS", "assay_type": "functional"}, "[5]": {"biological_target": "Fibroblast growth factor receptor 1 (Homo sapiens, UniProt P11362)", "sequence (P11362 whole entry)": "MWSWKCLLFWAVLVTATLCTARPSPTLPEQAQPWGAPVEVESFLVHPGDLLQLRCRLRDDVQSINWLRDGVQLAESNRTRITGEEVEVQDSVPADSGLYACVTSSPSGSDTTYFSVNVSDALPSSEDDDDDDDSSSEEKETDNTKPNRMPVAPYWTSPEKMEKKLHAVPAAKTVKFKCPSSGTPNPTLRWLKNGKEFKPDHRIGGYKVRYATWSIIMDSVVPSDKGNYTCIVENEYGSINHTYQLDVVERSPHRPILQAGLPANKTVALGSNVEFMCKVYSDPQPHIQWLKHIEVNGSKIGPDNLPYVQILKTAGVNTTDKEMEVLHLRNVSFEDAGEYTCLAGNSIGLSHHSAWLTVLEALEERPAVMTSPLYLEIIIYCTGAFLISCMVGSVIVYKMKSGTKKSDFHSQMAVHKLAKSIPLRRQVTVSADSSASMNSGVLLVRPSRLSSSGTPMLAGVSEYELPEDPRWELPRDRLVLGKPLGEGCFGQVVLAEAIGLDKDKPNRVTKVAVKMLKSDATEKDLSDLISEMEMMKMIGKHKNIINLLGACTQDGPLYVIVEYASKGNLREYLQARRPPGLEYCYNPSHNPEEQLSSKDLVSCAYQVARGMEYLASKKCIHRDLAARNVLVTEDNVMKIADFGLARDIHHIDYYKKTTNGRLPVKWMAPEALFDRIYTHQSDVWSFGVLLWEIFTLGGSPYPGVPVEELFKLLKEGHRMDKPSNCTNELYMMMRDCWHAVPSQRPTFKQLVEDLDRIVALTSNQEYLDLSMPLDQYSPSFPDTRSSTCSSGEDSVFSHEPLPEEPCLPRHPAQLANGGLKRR", "assay_type": "functional"}, "[6]": {"biological_target": "Casein kinase II subunit alpha (Homo sapiens, UniProt P68400)", "sequence (P68400 whole entry)": "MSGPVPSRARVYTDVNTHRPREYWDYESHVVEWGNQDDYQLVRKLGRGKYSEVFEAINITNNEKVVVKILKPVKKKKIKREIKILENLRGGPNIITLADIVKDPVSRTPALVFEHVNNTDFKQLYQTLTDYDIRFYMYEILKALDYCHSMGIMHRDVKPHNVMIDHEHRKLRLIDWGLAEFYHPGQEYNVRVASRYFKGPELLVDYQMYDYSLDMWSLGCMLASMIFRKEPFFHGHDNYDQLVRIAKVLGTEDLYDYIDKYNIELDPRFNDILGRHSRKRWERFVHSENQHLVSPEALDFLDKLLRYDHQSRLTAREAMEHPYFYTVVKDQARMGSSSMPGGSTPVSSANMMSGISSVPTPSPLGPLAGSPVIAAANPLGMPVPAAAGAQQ", "assay_type": "functional"}, "[7]": {"experiment": "fluconazole-exposed Candida albicans growth modulators – fluorescence, retest, confirmation (AID 2467)", "assay_type": "functional, cell-based"}, "[8]": {"experiment": "(§1) Counterscreen for antagonists of the orexin 1 receptor (OX1R; HCRTR1): Fluorescence-based cell-based high throughput dose response assay to identify antagonists of the parental CHO cell line. [Related pubchem assays (depositor defined):AID434989, AID435008, AID463079, AID485270, AID492963, AID492964, AID492965, AID493232, AID504699, AID504701]", "assay_type": "functional"}, "[9]": {"biological_target": "T1, Replicative DNA helicase DnaB (Mycobacterium tuberculosis, UniProt P9WMR3)", "T1 sequence (P9WMR3 whole entry)": "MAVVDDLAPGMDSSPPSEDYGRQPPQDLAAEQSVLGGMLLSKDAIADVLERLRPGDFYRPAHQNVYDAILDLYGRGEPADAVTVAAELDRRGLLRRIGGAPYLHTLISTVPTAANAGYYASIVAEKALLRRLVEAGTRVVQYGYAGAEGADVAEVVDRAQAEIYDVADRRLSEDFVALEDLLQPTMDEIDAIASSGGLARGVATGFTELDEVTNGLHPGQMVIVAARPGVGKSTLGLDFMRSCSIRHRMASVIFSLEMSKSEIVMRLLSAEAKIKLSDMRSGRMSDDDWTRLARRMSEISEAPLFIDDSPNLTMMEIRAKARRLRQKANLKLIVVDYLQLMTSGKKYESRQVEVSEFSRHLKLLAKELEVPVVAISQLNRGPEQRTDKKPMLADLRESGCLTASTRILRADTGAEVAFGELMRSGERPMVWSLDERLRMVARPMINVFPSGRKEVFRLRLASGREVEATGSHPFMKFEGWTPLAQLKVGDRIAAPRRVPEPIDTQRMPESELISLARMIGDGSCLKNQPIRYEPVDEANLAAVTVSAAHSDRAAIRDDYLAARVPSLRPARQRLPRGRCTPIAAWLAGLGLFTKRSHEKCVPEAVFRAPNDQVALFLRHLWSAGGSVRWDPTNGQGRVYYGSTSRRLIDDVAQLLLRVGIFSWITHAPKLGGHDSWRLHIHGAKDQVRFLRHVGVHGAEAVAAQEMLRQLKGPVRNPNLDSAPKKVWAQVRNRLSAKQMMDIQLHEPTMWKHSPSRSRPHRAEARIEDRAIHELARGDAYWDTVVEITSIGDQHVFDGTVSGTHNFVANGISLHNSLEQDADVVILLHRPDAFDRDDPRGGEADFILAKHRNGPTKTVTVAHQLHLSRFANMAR", "experiment": "DnaB intein splicing inhibitors, dose response, biochemical, cell-free fluorescence (AID 449749)", "assay_type": "functional"}, "[10]": {"biological_target": "T2, Orexin/Hypocretin receptor type 1 (Homo sapiens, UniProt O43613)", "T2 sequence (O43613 whole entry)": "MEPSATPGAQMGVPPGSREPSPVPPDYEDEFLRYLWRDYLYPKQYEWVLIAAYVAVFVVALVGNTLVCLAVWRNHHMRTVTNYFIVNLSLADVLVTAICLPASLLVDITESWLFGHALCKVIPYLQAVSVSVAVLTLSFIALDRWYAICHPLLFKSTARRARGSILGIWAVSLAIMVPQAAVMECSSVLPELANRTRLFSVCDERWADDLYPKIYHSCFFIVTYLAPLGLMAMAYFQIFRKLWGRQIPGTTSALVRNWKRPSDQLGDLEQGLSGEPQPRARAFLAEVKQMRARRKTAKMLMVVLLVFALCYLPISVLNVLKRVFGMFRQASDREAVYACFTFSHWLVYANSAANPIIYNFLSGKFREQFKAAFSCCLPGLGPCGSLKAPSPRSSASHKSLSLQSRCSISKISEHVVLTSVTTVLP", "experiment": "(§2) Fluorescence-based cell-based high throughput dose response assay for antagonists of the orexin 1 receptor (OX1R; HCRTR1). [Related pubchem assays (depositor defined):AID434989, AID435008, AID463079, AID485270, AID492963, AID492964, AID492965, AID493232, AID504717, AID504718]", "assay_type": "functional"}, "[11]": {"system": "Streptococcus", "experiment": "GAS UMAA2166 growth inhibition – luminescence, BacTiterGlo, counter-screen for streptokinase expression inhibitor project, dose response (AID 1915)", "assay_type": "functional, organism-based"}, "[12]": {"biological_target": "T3, Orexin receptor type 2 (Homo sapiens, UniProt O43614)", "T3 sequence (O43614 whole entry)": "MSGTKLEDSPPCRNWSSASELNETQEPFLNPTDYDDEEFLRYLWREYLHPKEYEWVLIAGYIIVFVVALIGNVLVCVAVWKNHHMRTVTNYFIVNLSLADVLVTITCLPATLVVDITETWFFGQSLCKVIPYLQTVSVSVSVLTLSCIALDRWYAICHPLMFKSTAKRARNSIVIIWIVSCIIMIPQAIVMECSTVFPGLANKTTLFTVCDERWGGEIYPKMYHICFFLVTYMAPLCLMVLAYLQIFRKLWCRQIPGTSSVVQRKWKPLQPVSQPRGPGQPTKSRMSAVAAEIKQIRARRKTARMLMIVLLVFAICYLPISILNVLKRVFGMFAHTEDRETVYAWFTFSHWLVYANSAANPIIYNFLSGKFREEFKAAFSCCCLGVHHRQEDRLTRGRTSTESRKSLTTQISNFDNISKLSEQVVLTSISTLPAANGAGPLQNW", "experiment": "Counterscreen assay for antagonists of the orexin 1 receptor (OX1R; HCRTR1): Homogeneous Time Resolved Fluorescence (HTRF)-based cell-based dose response assay for antagonists of the orexin 2 receptor (OX2R; HCRTR2), run by assay provider.", "assay_type": "functional"}, "[13]": {"biological_target": "T4, Streptokinase A (Streptococcus pyogenes serotype M1, UniProt P10520)", "T4 sequence (P10520 whole entry)": "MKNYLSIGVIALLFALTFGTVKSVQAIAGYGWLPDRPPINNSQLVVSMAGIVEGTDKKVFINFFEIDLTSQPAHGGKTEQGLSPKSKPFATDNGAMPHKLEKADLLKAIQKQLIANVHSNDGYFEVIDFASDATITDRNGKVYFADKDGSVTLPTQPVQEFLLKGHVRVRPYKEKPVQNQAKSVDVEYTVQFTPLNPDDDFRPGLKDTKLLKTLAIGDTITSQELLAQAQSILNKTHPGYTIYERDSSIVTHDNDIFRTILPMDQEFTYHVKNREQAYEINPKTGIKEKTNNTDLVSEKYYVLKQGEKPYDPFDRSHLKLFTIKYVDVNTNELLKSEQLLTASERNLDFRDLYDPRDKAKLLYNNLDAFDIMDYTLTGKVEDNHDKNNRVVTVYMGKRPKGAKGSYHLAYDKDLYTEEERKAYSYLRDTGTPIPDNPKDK", "experiment": "viability-normalized secreted streptokinase activity reduction – plasminogen activation absorbance, OD405, dose response (AID 1914)", "assay_type": "functional, Streptococcus pyogenes M1 GAS"}, "[14]": {"biological_target": "T2, Orexin/Hypocretin receptor type 1", "experiment": "as §2, with “Homogeneous Time Resolved Fluorescence (HTRF)-based” for “Fluorescence-based”", "assay_type": "functional"}, "[15]": {"biological_target": "T3, Orexin receptor type 2", "experiment": "Counterscreen assay for antagonists of the orexin 1 receptor (OX1R; HCRTR1): Fluorescence-based cell-based dose response assay for antagonists of the orexin 2 receptor (OX2R; HCRTR2), run by assay provider.", "assay_type": "functional"}, "[16]": {"system": "Streptococcus sp. 'group A'", "experiment": "Streptococcus pyogenes SK(-)GAS viability under kanamycin – luminescence, BacTiterGlo, confirmation, counter-screen for streptokinase expression inhibitor project, dose response (AID 1900)", "assay_type": "functional, organism-based"}, "[17]": {"experiment": "NIH-3T3 fibroblast cytotoxicity, dose response, cytotoxicity control, cell-based, fluorescence, Alamar Blue, secondary assay (AID 2327)", "assay_type": "functional"}, "[18]": {"experiment": "general cell-killing toxicity readout – plate reader, dry powder samples, cytotoxicity control for PAX8 inhibitor project, dose response (AID 743021)", "assay_type": "functional, cell-based"}, "[19]": {"system": "CHO-K1", "experiment": "as §1, with “Homogeneous time resolved fluorescence (HTRF)-based” for “Fluorescence-based”, “cell-based” for “cell-based high throughput”, “CHO-K1” for “CHO”", "assay_type": "functional", "conditions": "Cricetulus griseus"}, "[20]": {"biological_target": "T5, Protein RecA (Mycobacterium tuberculosis, UniProt P9WHJ3)", "T5 sequence (P9WHJ3 whole entry)": "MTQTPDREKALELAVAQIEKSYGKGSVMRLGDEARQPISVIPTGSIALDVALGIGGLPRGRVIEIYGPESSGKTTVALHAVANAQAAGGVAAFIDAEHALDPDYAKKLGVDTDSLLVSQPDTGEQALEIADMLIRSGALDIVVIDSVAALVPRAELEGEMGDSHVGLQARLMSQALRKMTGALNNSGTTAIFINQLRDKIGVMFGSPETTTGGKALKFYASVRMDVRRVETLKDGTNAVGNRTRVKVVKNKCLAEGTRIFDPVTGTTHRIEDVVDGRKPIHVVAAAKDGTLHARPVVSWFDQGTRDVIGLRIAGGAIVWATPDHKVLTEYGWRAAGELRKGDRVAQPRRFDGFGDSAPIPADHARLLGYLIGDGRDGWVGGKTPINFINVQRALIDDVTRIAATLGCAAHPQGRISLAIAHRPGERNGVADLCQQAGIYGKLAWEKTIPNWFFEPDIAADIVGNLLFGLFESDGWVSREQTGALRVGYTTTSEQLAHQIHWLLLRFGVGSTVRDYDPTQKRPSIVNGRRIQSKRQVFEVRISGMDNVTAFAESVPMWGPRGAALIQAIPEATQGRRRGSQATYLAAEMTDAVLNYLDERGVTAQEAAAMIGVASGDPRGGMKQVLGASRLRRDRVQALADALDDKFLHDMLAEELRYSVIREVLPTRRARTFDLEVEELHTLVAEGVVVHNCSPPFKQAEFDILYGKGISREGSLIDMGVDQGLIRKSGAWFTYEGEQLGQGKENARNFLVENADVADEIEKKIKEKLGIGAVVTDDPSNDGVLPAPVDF", "experiment": "Fluorescence Cell-Free Homogeneous Dose Retest to Identify Inhibitors of RecA-Intein Splicing Activity. [Related pubchem assays (depositor defined):AID2097, AID2223, AID489010, AID492950]", "assay_type": "functional"}, "[21]": {"biological_target": "Paired box protein Pax-8 (Homo sapiens, UniProt Q06710)", "sequence (Q06710 whole entry)": "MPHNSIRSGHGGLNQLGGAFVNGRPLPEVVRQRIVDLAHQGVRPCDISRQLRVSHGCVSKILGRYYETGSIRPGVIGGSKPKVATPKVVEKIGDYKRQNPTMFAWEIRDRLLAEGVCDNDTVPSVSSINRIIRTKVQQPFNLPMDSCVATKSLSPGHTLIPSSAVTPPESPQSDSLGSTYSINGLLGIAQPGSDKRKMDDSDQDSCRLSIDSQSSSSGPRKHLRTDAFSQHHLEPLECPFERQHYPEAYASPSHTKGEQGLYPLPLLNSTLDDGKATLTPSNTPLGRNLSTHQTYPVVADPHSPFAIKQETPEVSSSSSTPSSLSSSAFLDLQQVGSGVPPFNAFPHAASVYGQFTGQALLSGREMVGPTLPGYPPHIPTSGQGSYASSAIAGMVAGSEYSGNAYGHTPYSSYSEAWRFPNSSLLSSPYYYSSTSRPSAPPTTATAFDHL", "experiment": "PAX8 transcriptional activity inhibition in RMG-I – RMG-I cells, luciferase, cherry-pick, dose response (AID 687027)", "assay_type": "functional, cell-based"}, "[22]": {"system": "INS1", "experiment": "INS-1E survival protection against cytokine death – cell-based, luminescence, retest, dose response (AID 449756)", "assay_type": "functional", "conditions": "Rattus norvegicus"}, "[23]": {"experiment": "viability of uninfected HEp-2 cells – cell-based, HTS, cytotoxicity control for RSV inhibitor project, dose response (AID 2410)", "assay_type": "functional", "conditions": "human respiratory syncytial virus"}}, "note": "The source made the active and inactive calls.", "data": [{"smiles": "Fc1ccc2c(c1)-c1n[nH]cc1CS2", "values": [{"measurement": "Ki", "setting": "[1]", "result": "15.8 µM (active)"}, {"measurement": "Ki", "setting": "[2]", "result": "6.31 µM (active)"}, {"measurement": "Ki", "setting": "[3]", "result": "12.6 µM (active)"}, {"measurement": "Ki", "setting": "[4]", "result": "5.01 µM (active)"}, {"measurement": "Ki", "setting": "[5]", "result": "10 µM (active)"}, {"measurement": "Ki", "setting": "[6]", "result": "6.31 µM (active)"}]}, {"smiles": "COc1cccc(/C=N/Nc2cc(C)nc(-c3ccccc3O)n2)c1O", "values": [{"measurement": "EC50", "setting": "[7]", "result": "0.294 µM (active)"}, {"measurement": "IC50", "setting": "[8]", "result": "> 49.8 µM (inactive)"}, {"measurement": "AC50", "setting": "[9]", "result": "30.1 µM (active)"}, {"measurement": "IC50", "setting": "[10]", "result": "3.31 µM (active)"}, {"measurement": "EC50", "setting": "[11]", "result": "6.64 µM (active)"}, {"measurement": "IC50", "setting": "[12]", "result": "> 50 µM (inactive)"}, {"measurement": "EC50", "setting": "[13]", "result": "> 150 µM (not active)"}, {"measurement": "IC50", "setting": "[14]", "result": "2.91 µM (active)"}, {"measurement": "IC50", "setting": "[15]", "result": "11.9 µM (inactive)"}, {"measurement": "EC50", "setting": "[16]", "result": "0.876 µM (active)"}, {"measurement": "EC50", "setting": "[17]", "result": "5.22 µM (inconclusive)"}, {"measurement": "AC50", "setting": "[18]", "result": "16.2 µM (active)"}, {"measurement": "IC50", "setting": "[19]", "result": "> 66.2 µM (inactive)"}, {"measurement": "EC50", "setting": "[20]", "result": "357 µM (inconclusive)"}, {"measurement": "AC50", "setting": "[21]", "result": "5.5 µM (active)"}, {"measurement": "AC50", "setting": "[22]", "result": "1.93 µM (active)"}, {"measurement": "CC50", "setting": "[23]", "result": "5.1 µM (active)"}]}]}
